Source: paper PMC9333455, “Drug repurposing based on a quantum-inspired method versus classical fingerprinting uncovers potential antivirals against SARS-CoV-2” (PLoS Computational Biology, 2022)

System: SARS-CoV-2 variants Alpha (B.1.1.7), Beta (B.1.351), Delta (B.617.2)
Assay type: cell-based
Conditions: Vero E6 and Caco-2 cells, 48 h

SMILES: COc1nc(N)nc2c1ncn2[C@@H]1O[C@H](COP(=O)(N[C@@H](C)C(=O)OCC(C)(C)C)Oc2cccc3ccccc23)[C@@H](O)[C@@]1(C)O (stereo partly shown) [BMS-986094]
- replication of panel of SARS-CoV-2 variant isolates (in words): suppressed the replication
